Usually pKi stands for the Ki on a negative log10 scale, so that one unit is a factor of ten.

In BindingDB's records for doi:10.1016/s0024-3205(97)00885-0 (Eli Lilly, 1997) one finds Ki data, which are given here for one molecule.

Targets include Histamine H1 receptor (Rattus norvegicus, UniProt P31390); D(2) dopamine receptor (Rattus norvegicus, UniProt P61169); D(1A) dopamine receptor (Rattus norvegicus, UniProt P18901).
Assay [1] deals with Gamma-aminobutyric acid receptor subunit alpha-1 (Rattus norvegicus, UniProt P62813).
The target of assay [2] is 5-hydroxytryptamine receptor 2B (Homo sapiens, UniProt P41595).
Assay [3] has as its target 5-hydroxytryptamine receptor 7 (Homo sapiens, UniProt P34969).
Assay [4] deals with T1, 5-hydroxytryptamine receptor 1F (Homo sapiens, UniProt P30939).
T1 sequence (P30939 whole entry): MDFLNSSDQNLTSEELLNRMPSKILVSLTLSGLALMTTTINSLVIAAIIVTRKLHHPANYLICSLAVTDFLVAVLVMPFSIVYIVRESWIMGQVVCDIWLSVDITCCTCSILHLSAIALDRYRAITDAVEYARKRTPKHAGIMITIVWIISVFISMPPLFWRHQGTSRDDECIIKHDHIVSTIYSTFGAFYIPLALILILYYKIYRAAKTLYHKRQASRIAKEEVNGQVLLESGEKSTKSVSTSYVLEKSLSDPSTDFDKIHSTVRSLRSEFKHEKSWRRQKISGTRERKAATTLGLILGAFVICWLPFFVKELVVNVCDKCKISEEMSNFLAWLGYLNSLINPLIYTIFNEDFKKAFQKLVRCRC

The target of assay [5] is T2, 5-hydroxytryptamine receptor 2C (Homo sapiens, UniProt P28335).
T2 sequence (P28335 whole entry): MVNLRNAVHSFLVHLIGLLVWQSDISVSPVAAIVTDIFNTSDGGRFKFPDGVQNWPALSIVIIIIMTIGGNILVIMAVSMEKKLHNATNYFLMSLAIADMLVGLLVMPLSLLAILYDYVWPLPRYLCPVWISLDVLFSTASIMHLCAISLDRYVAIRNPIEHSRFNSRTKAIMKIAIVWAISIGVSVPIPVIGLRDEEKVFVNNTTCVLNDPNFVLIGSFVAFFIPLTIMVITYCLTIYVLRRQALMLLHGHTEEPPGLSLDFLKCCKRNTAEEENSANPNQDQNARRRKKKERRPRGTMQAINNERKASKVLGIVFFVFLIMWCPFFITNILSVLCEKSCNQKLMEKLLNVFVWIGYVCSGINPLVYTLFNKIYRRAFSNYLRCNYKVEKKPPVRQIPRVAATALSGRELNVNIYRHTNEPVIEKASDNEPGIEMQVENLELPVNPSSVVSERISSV

Assay [6] concerns the target T3, Alpha-1A adrenergic receptor (Rattus norvegicus, UniProt P43140).
T3 sequence (P43140 whole entry): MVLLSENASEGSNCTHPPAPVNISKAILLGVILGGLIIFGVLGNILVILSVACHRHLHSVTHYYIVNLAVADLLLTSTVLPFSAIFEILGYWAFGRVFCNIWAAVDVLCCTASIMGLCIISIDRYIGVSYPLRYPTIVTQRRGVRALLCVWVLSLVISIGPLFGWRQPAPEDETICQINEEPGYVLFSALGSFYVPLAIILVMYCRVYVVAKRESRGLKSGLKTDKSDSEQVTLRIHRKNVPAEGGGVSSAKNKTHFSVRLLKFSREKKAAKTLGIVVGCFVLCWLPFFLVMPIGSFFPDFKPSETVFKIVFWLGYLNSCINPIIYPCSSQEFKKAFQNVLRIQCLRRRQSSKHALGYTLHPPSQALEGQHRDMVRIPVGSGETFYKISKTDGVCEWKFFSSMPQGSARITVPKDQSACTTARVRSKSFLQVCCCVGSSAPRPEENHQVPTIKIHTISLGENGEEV

Assay [7] has as its target 5-hydroxytryptamine receptor 2A (Homo sapiens, UniProt P28223).
The target of assay [8] is 5-hydroxytryptamine receptor 1D (Homo sapiens, UniProt P28221).
The target in assay [9] is T4, Alpha-2C adrenergic receptor (Rattus norvegicus, UniProt P22086).
T4 sequence (P22086 whole entry): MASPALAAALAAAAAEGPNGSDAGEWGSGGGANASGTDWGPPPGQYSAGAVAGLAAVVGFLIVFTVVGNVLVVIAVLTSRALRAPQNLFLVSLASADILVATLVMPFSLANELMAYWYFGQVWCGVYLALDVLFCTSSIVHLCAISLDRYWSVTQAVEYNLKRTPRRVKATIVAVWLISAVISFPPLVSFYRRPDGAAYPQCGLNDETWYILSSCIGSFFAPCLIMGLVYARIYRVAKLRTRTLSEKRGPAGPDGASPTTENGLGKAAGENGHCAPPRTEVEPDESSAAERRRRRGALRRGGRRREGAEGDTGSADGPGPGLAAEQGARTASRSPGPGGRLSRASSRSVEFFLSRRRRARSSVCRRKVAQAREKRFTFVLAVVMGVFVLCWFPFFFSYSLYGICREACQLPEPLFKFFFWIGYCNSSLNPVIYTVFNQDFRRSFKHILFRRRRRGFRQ

The target of assay [10] is T5, Muscarinic acetylcholine receptor M2 (Rattus norvegicus, UniProt P10980).
T5 sequence (P10980 whole entry): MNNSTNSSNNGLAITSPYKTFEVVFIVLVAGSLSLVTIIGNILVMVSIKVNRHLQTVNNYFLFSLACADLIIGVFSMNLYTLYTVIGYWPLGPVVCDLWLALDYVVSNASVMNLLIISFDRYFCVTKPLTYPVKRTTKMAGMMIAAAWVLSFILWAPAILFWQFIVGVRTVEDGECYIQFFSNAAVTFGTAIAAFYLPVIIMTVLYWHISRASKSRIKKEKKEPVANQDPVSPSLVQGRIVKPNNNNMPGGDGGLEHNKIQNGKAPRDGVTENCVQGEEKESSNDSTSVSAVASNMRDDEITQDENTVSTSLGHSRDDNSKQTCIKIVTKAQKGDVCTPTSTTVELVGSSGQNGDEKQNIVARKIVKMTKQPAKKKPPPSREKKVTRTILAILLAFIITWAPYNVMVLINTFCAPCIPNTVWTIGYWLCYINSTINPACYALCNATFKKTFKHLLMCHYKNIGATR

Assay [11] has as its target Beta-2 adrenergic receptor (Rattus norvegicus, UniProt P10608).

pKi: −log10 of the molar value.

5-hydroxytryptamine receptor 1D, sequence (P28221 whole entry): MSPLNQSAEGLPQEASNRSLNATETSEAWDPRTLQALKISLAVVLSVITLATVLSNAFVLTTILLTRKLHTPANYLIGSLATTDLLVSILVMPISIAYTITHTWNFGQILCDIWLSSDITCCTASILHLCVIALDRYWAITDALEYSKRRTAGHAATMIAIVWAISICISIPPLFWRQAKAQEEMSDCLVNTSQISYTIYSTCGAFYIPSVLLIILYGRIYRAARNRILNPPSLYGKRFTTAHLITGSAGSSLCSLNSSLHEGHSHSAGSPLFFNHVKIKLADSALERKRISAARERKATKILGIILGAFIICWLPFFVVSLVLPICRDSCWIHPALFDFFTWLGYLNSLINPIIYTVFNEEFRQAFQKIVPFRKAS
Histamine H1 receptor, sequence (P31390 whole entry): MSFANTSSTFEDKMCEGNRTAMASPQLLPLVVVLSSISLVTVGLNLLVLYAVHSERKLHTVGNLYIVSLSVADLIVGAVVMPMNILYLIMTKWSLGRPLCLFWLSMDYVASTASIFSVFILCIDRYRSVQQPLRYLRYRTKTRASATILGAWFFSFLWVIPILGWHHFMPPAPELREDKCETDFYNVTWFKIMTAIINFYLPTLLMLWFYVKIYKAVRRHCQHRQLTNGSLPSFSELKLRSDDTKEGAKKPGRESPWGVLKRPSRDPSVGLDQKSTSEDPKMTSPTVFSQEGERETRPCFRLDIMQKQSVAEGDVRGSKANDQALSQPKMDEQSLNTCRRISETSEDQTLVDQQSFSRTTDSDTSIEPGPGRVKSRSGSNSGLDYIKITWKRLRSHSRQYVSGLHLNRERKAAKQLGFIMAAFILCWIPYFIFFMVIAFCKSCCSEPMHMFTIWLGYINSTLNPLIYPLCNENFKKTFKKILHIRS
D(1A) dopamine receptor, sequence (P18901 whole entry): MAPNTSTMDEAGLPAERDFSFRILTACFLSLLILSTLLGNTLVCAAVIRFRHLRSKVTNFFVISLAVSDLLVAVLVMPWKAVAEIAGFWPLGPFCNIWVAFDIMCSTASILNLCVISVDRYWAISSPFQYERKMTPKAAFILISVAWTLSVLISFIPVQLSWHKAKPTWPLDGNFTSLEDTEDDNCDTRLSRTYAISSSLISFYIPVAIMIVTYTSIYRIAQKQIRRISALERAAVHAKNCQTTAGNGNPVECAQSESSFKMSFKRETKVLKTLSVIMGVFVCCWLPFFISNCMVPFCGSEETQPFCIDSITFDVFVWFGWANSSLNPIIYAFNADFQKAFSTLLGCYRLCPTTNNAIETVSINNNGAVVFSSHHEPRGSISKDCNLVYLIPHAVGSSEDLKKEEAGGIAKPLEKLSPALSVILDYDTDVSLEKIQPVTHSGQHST
5-hydroxytryptamine receptor 2A, sequence (P28223 whole entry): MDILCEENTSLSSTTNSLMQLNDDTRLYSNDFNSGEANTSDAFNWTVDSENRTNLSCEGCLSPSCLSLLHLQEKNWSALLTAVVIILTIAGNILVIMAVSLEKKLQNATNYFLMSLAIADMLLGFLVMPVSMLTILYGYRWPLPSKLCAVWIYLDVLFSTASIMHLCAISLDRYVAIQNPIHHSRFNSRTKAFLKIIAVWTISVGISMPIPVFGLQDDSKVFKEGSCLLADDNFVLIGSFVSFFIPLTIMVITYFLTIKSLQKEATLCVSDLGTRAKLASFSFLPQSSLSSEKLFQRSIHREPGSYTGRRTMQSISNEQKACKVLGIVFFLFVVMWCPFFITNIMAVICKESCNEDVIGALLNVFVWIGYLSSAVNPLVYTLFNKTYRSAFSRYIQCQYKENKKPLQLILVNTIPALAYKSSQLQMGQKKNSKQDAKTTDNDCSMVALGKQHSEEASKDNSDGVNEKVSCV
Beta-2 adrenergic receptor, sequence (P10608 whole entry): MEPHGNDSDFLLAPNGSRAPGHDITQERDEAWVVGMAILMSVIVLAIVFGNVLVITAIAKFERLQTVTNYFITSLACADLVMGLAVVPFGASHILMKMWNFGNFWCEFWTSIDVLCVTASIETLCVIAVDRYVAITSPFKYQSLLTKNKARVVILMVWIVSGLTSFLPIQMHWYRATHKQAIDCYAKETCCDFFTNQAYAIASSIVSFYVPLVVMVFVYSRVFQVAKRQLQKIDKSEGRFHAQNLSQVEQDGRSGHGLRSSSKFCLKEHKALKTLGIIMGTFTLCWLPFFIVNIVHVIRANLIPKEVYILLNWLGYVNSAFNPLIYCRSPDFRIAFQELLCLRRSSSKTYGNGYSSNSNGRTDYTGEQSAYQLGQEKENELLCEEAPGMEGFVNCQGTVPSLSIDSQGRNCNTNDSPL
D(2) dopamine receptor, sequence (P61169 whole entry): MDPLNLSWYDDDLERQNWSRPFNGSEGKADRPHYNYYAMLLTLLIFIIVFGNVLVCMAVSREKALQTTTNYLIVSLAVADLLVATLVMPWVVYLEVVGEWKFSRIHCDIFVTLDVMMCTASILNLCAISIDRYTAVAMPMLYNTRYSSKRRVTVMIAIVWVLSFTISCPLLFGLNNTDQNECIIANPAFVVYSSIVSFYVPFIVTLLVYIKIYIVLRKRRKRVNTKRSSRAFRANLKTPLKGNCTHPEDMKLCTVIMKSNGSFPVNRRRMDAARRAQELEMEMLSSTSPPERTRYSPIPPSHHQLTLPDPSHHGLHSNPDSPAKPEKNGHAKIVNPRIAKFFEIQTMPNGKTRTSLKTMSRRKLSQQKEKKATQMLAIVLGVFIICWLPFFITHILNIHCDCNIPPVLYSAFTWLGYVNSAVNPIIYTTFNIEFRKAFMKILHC
Gamma-aminobutyric acid receptor subunit alpha-1, sequence (P62813 whole entry): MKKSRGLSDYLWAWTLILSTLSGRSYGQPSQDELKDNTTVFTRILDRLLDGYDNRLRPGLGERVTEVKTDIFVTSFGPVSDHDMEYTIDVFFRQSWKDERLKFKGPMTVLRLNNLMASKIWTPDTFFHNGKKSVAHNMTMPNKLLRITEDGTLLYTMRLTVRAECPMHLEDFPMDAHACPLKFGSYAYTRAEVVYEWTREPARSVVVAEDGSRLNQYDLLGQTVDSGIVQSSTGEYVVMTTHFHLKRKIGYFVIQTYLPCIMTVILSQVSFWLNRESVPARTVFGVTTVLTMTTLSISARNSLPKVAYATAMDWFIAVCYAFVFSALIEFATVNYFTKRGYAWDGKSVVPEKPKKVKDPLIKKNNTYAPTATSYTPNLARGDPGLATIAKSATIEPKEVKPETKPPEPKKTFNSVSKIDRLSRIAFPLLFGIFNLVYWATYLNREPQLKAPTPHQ
5-hydroxytryptamine receptor 2B, sequence (P41595 whole entry): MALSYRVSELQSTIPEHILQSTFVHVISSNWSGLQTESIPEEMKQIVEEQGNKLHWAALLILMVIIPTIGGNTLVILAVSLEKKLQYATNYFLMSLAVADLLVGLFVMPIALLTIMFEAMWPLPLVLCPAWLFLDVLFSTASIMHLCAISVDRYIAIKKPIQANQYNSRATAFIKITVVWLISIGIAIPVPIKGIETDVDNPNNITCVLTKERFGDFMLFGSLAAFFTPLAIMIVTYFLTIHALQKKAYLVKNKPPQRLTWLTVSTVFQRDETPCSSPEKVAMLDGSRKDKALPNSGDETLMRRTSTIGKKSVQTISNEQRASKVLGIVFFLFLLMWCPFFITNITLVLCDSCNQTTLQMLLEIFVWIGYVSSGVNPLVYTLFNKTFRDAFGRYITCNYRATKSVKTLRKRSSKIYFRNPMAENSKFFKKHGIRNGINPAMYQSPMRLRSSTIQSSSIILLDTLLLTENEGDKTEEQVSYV
5-hydroxytryptamine receptor 7, sequence (P34969 whole entry): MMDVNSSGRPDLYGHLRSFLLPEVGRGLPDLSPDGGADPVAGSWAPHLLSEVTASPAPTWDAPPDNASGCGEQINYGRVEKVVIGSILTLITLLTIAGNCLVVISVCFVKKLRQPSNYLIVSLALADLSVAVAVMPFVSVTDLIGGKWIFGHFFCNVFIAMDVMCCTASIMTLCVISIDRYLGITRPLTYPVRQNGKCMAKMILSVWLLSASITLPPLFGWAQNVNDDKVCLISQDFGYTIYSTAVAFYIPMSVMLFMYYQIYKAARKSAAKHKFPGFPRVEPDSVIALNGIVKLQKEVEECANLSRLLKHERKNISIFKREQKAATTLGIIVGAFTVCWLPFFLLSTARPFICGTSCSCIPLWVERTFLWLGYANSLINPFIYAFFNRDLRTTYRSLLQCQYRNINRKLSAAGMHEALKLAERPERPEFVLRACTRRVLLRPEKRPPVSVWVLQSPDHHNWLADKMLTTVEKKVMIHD

As for `CN(C)C1CCc2[nH]c3ccc(NC(=O)c4ccc(F)cc4)cc3c2C1` (centres undefined) [NSC_5311097], the negative logarithm of the Ki (pKi) in assay [1] was less than 5.00; at Histamine H1 receptor, less than 5.00; in [2] it was 5.77; in [3], 5.31; in [4], 8.22; in assay [5], 5.46. Also, the pKi in assay [6] is 5.30; in assay [7] it was 5.41; in assay [8], 6.24; in assay [9] it was 5.43; in assay [10], less than 5.00; on D(2) dopamine receptor, less than 5.00. Also, the pKi (on D(1A) dopamine receptor; in [11]) was less than 5.00 throughout.
